Test results as given in patent US20180022780A1, “STABILIZATION ADRENOMEDULLIN DERIVATIVES AND USE THEREOF” (priority 2014, published 2018).
Numbered stars: 1 amine (or outer) side, 2 acyl side, 3 side chain; on linkers, the order of the positions; unused ones are H or OH. Bridge positions count the residues as written; N and C are the ends. Square brackets hold non-standard residues; d marks the D form. Peptide text beside a SMILES is read from it. Abu(4-yl) = O=C([C@H](CC[*:3])N[*:1])[*:2]; Orn = NCCC[C@H](N)C(=O)O; Dab = NCC[C@H](N)C(=O)O; Dap = NC[C@H](N)C(=O)O

Assays:
[1] = target: T1, human adrenomedullin-receptor (Homo sapiens, UniProt O60895+Q16602); test: Tests on a recombinant adrenomedullin-receptor reporter cell (CHO, aequorin luminescence); type: cell-based; conditions: Table 1, CHO cell line carrying the human adrenomedullin-receptor
T1 construct: expressed in transfected cells; host or cells: CHO (Chinese hamster ovary) recombinant reporter cell line with aequorin
T1 sequence (Q16602 23-461): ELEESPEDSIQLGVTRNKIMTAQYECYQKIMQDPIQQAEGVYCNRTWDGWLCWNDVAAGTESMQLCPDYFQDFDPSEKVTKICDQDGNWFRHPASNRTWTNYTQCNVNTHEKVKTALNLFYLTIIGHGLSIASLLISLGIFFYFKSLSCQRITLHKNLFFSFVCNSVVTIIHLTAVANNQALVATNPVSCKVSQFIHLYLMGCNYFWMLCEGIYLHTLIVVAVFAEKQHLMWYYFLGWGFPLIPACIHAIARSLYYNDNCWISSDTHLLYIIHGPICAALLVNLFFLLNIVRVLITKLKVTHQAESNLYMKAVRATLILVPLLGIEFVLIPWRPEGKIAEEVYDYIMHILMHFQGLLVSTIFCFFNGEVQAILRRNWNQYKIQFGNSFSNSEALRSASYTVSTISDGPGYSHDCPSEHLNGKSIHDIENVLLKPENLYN
T1 sequence (O60895 43-175): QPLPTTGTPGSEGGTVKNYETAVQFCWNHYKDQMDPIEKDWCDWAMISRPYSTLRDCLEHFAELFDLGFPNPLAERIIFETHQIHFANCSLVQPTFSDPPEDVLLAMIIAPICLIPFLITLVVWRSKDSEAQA
Procedure: Activation of the receptor by ligands was measured by aequorin luminescence. Construction of the cell line and measurement procedure has been described in detail [Wunder F., Rebmann A., Geerts A, and Kalthof B., Mol Pharmacol, 73, 1235-1243 (2008)]. In brief: Cells were seeded on opaque 384-well microtiter plates at a density of 4000 cells/well and were grown for 24 h. After removal of culture medium, cells were loaded for 3 h with 0.6 μg/ml coelenterazine in Ca^2+-free Tyrode solution (130 mM sodium chloride, 5 mM potassium chloride, 20 mM HEPES (4-(2-hydroxyethyl)-1-piperazineethanesulfonic acid), 1 mM magnesium chloride, and 4.8 mM sodium hydrogen carbonate, pH 7.4) supplemented with 0.2 mM 3-Isobutyl-1-methylxanthine (IBMX) in a cell culture incubator. Examples were added for 6 min in calcium^2+-free Tyrode solution containing 0.1% bovine serum albumin. Immediately before adding calcium^2+ to a final concentration of 3 mM measurement of the aequorin luminescence was started by use of a suitable luminometer. Luminescence was measured for 60 s. In a typical experiment compounds were tested in a concentration range of 1×10^−13 to 3×10^−6 M.

[2] = target: T2, CLR fused to EYFP and RAMP2 fused to ECFP (Homo sapiens, UniProt O60895+Q16602); test: cAMP assay (CRE luciferase reporter, HEK-293 cells transiently co-transfected with CLR and RAMP2); type: cell-based; conditions: Table 2, cAMP assay; HEK-293, CLR/RAMP2, CRE luciferase, 3 h stimulation, normalized to [G^14]ADM(14-52)
T2 construct: EYFP; ECFP; expressed in transfected cells; host or cells: HEK-293 cells, transient co-transfection
T2 sequence (Q16602 23-461): as the sequence (Q16602 23-461) above
T2 sequence (O60895 43-175): as the sequence (O60895 43-175) above
Procedure, shortened: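 HEK-293 cells transiently co-transfected with CLR-EYFP, RAMP2-ECFP and a CRE-luc2P luciferase reporter were stimulated with ligands (eight concentrations, triplicate) for 3 h at 37 °C. Luminescence was corrected to 5 µM forskolin, normalized to [G^14]ADM(14-52) standard, and fitted by non-linear regression to dose-response curves.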

| Structure (SMILES) | EC50 [1] [nM] | EC50 [2] [nM] |
| --- | --- | --- |
| CC[C@H](C)[C@H](NC(=O)[C@H](CCC(N)=O)NC(=O)[C@H](Cc1c[nH]cn1)NC(=O)[C@H](C)NC(=O)[C@H](CC(C)C)NC(=O)[C@H](CCCCN)NC(=O)[C@H](CCC(N)=O)NC(=O)[C@@H](NC(=O)[C@@H](NC(=O)[C@@H]1CC(=O)NCCC[C@H](NC(=O)CNC(=O)CN)C(=O)N[C@@H](CCCNC(=N)N)C(=O)N[C@@H](Cc2ccccc2)C(=O)NCC(=O)N[C@@H]([C@@H](C)O)C(=O)N1)[C@@H](C)O)C(C)C)C(=O)N[C@@H](Cc1ccc(O)cc1)C(=O)N[C@@H](CCC(N)=O)C(=O)N[C@@H](Cc1ccccc1)C(=O)N[C@H](C(=O)N[C@@H](CC(=O)O)C(=O)N[C@@H](CCCCN)C(=O)N[C@@H](CC(=O)O)C(=O)N[C@@H](CCCCN)C(=O)N[C@@H](CC(=O)O)C(=O)N[C@@H](CC(N)=O)C(=O)N[C@H](C(=O)N[C@@H](C)C(=O)N1CCC[C@H]1C(=O)N[C@@H](CCCNC(=N)N)C(=O)N[C@@H](CO)C(=O)N[C@@H](CCCCN)C(=O)N[C@H](C(=O)N[C@@H](CO)C(=O)N1CCC[C@H]1C(=O)N[C@@H](CCC(N)=O)C(=O)NCC(=O)N[C@@H](Cc1ccc(O)cc1)C(N)=O)[C@@H](C)CC)C(C)C)[C@@H](C)O [Example 9, ((2S,5S,11S,14S,21S)-21-(2-(2-aminoacetamido)acetamido)-5-benzyl-2-(3-guanidinopropyl)-11-((R)-1-hydroxyethyl)-3,6,9,12,16,22-hexaoxo-1,4,7,10,13,17-hexaazacyclodocosane-14-carbonyl)-L-threonyl-ADM(22-52)] (H-GG[Orn]RFGTDTVQKLAHQIYQFTDKDKDNVAPRSKISPQGY-NH2; lactam 3-8) | > 1000 | > 1000 |
| CC[C@H](C)[C@H](NC(=O)[C@H](CCC(N)=O)NC(=O)[C@H](Cc1c[nH]cn1)NC(=O)[C@H](C)NC(=O)[C@H](CC(C)C)NC(=O)[C@H](CCCCN)NC(=O)[C@H](CCC(N)=O)NC(=O)[C@@H](NC(=O)[C@@H](NC(=O)[C@@H]1CC(=O)NCCCC[C@H](NC(=O)CNC(=O)CN)C(=O)N[C@@H](CCCNC(=N)N)C(=O)N[C@@H](Cc2ccccc2)C(=O)NCC(=O)N[C@@H]([C@@H](C)O)C(=O)N1)[C@@H](C)O)C(C)C)C(=O)N[C@@H](Cc1ccc(O)cc1)C(=O)N[C@@H](CCC(N)=O)C(=O)N[C@@H](Cc1ccccc1)C(=O)N[C@H](C(=O)N[C@@H](CC(=O)O)C(=O)N[C@@H](CCCCN)C(=O)N[C@@H](CC(=O)O)C(=O)N[C@@H](CCCCN)C(=O)N[C@@H](CC(=O)O)C(=O)N[C@@H](CC(N)=O)C(=O)N[C@H](C(=O)N[C@@H](C)C(=O)N1CCC[C@H]1C(=O)N[C@@H](CCCNC(=N)N)C(=O)N[C@@H](CO)C(=O)N[C@@H](CCCCN)C(=O)N[C@H](C(=O)N[C@@H](CO)C(=O)N1CCC[C@H]1C(=O)N[C@@H](CCC(N)=O)C(=O)NCC(=O)N[C@@H](Cc1ccc(O)cc1)C(N)=O)[C@@H](C)CC)C(C)C)[C@@H](C)O [Example 21, ((2S,5S,11S,14S,22S)-22-(2-(2-aminoacetamido)acetamido)-5-benzyl-2-(3-guanidinopropyl)-11-((R)-1-hydroxyethyl)-3,6,9,12,16,23-hexaoxo-1,4,7,10,13,17-hexaazacyclotricosane-14-carbonyl)-L-threonyl-ADM(22-52)] (H-GGKRFGTDTVQKLAHQIYQFTDKDKDNVAPRSKISPQGY-NH2; lactam 3-8) | > 1000 | > 1000 |
| CC[C@H](C)[C@H](NC(=O)[C@H](CCC(N)=O)NC(=O)[C@H](Cc1c[nH]cn1)NC(=O)[C@H](C)NC(=O)[C@H](CC(C)C)NC(=O)[C@H](CCCCN)NC(=O)[C@H](CCC(N)=O)NC(=O)[C@@H](NC(=O)[C@@H](NC(=O)[C@@H]1CSCC[C@H](NC(=O)CNC(=O)CN)C(=O)N[C@@H](CCCNC(=N)N)C(=O)N[C@@H](Cc2ccccc2)C(=O)NCC(=O)N[C@@H]([C@@H](C)O)C(=O)N1)[C@@H](C)O)C(C)C)C(=O)N[C@@H](Cc1ccc(O)cc1)C(=O)N[C@@H](CCC(N)=O)C(=O)N[C@@H](Cc1ccccc1)C(=O)N[C@H](C(=O)N[C@@H](CC(=O)O)C(=O)N[C@@H](CCCCN)C(=O)N[C@@H](CC(=O)O)C(=O)N[C@@H](CCCCN)C(=O)N[C@@H](CC(=O)O)C(=O)N[C@@H](CC(N)=O)C(=O)N[C@H](C(=O)N[C@@H](C)C(=O)N1CCC[C@H]1C(=O)N[C@@H](CCCNC(=N)N)C(=O)N[C@@H](CO)C(=O)N[C@@H](CCCCN)C(=O)N[C@H](C(=O)N[C@@H](CO)C(=O)N1CCC[C@H]1C(=O)N[C@@H](CCC(N)=O)C(=O)NCC(=O)N[C@@H](Cc1ccc(O)cc1)C(N)=O)[C@@H](C)CC)C(C)C)[C@@H](C)O [Example 16, ((3R,6S,12S,15S,18S)-18-(2-(2-aminoacetamido)acetamido)-12-benzyl-15-(3-guanidinopropyl)-6-((R)-1-hydroxyethyl)-5,8,11,14,17-pentaoxo-1-thia-4,7,10,13,16-pentaazacycloicosane-3-carbonyl)-L-threonyl-ADM(22-52)] (H-GG[Abu(4-yl)]RFGTCTVQKLAHQIYQFTDKDKDNVAPRSKISPQGY-NH2; thioether 3-8) | – | 6.8 |
| CC[C@H](C)[C@H](NC(=O)[C@H](CCC(N)=O)NC(=O)[C@H](Cc1c[nH]cn1)NC(=O)[C@H](C)NC(=O)[C@H](CC(C)C)NC(=O)[C@H](CCCCN)NC(=O)[C@H](CCC(N)=O)NC(=O)[C@@H](NC(=O)[C@@H](NC(=O)[C@@H]1CCC(=O)NCC[C@H](NC(=O)CNC(=O)CN)C(=O)N[C@@H](CCCNC(=N)N)C(=O)N[C@@H](Cc2ccccc2)C(=O)NCC(=O)N[C@@H]([C@@H](C)O)C(=O)N1)[C@@H](C)O)C(C)C)C(=O)N[C@@H](Cc1ccc(O)cc1)C(=O)N[C@@H](CCC(N)=O)C(=O)N[C@@H](Cc1ccccc1)C(=O)N[C@H](C(=O)N[C@@H](CC(=O)O)C(=O)N[C@@H](CCCCN)C(=O)N[C@@H](CC(=O)O)C(=O)N[C@@H](CCCCN)C(=O)N[C@@H](CC(=O)O)C(=O)N[C@@H](CC(N)=O)C(=O)N[C@H](C(=O)N[C@@H](C)C(=O)N1CCC[C@H]1C(=O)N[C@@H](CCCNC(=N)N)C(=O)N[C@@H](CO)C(=O)N[C@@H](CCCCN)C(=O)N[C@H](C(=O)N[C@@H](CO)C(=O)N1CCC[C@H]1C(=O)N[C@@H](CCC(N)=O)C(=O)NCC(=O)N[C@@H](Cc1ccc(O)cc1)C(N)=O)[C@@H](C)CC)C(C)C)[C@@H](C)O [Example 11, ((2S,5S,11S,14S,21S)-21-(2-(2-aminoacetamido)acetamido)-5-benzyl-2-(3-guanidinopropyl)-11-((R)-1-hydroxyethyl)-3,6,9,12,17,22-hexaoxo-1,4,7,10,13,18-hexaazacyclodocosane-14-carbonyl)-L-threonyl-ADM(22-52)] (H-GG[Dab]RFGTETVQKLAHQIYQFTDKDKDNVAPRSKISPQGY-NH2; lactam 3-8) | – | 84 |
| CC[C@H](C)[C@H](NC(=O)[C@H](CCC(N)=O)NC(=O)[C@H](Cc1c[nH]cn1)NC(=O)[C@H](C)NC(=O)[C@H](CC(C)C)NC(=O)[C@H](CCCCN)NC(=O)[C@H](CCC(N)=O)NC(=O)[C@@H](NC(=O)[C@@H](NC(=O)[C@@H]1CC(=O)NC[C@H](NC(=O)CNC(=O)CN)C(=O)N[C@@H](CCCNC(=N)N)C(=O)N[C@@H](Cc2ccccc2)C(=O)NCC(=O)N[C@@H]([C@@H](C)O)C(=O)N1)[C@@H](C)O)C(C)C)C(=O)N[C@@H](Cc1ccc(O)cc1)C(=O)N[C@@H](CCC(N)=O)C(=O)N[C@@H](Cc1ccccc1)C(=O)N[C@H](C(=O)N[C@@H](CC(=O)O)C(=O)N[C@@H](CCCCN)C(=O)N[C@@H](CC(=O)O)C(=O)N[C@@H](CCCCN)C(=O)N[C@@H](CC(=O)O)C(=O)N[C@@H](CC(N)=O)C(=O)N[C@H](C(=O)N[C@@H](C)C(=O)N1CCC[C@H]1C(=O)N[C@@H](CCCNC(=N)N)C(=O)N[C@@H](CO)C(=O)N[C@@H](CCCCN)C(=O)N[C@H](C(=O)N[C@@H](CO)C(=O)N1CCC[C@H]1C(=O)N[C@@H](CCC(N)=O)C(=O)NCC(=O)N[C@@H](Cc1ccc(O)cc1)C(N)=O)[C@@H](C)CC)C(C)C)[C@@H](C)O [Example 3, ((2S,5S,11S,14S,19S)-19-(2-(2-aminoacetamido)acetamido)-5-benzyl-2-(3-guanidinopropyl)-11-((R)-1-hydroxyethyl)-3,6,9,12,16,20-hexaoxo-1,4,7,10,13,17-hexaazacycloicosane-14-carbonyl)-L-threonyl-ADM(22-52)] (H-GG[Dap]RFGTDTVQKLAHQIYQFTDKDKDNVAPRSKISPQGY-NH2; lactam 3-8) | – | 67 |
